# US9597283B2, “Injectable depot formulation comprising optically active tolvaptan and process of producing the same” (OTSUKA PHARMACEUTICAL CO., LTD., priority 2012, dated 2017)
# Experiments:
# [1] = dissolution test of tolvaptan powders; type: physicochemical; conditions: Test Example 3; crystal powders; 0.1 g in 500 mL polysorbate 80 / phosphate solution pH 7.4; sampling up to 48 hours; FIG. 5
# Procedure: The dissolution test of each of the R- and S-tolvaptan SD powders of Examples 1 and 2, tolvaptan (racemic compound) SD powders of Comparative Examples 1 to 6, and tolvaptan (racemic compound) crystal powder of Comparative Example 7 was performed (FIGS. 2 to 4). In the dissolution test method, the R- and S-tolvaptan SD powders, tolvaptan (racemic compound) SD powders, and tolvaptan (racemic compound) crystal powder were weighed out in individual amounts of 0.1 g, and added to a solution (500 mL) for dissolution test shown in Table 2. None of the tolvaptans in an amount weighed above were dissolved in the solvent for dissolution test, and were fully suspended. Sequential sampling was performed 0.083, 0.167, 0.5, 1, 2, 4, 6, 8, 12, 24, 48, and 144 hours after addition.
# The dissolution test of each of the R- and S-tolvaptan crystal powders was performed (FIG. 5). As a control, the result of Comparative Example 7 in Test Example 2 above was plotted. In the dissolution test method, an R-tolvaptan crystal powder (mean particle size: 34.0 μm) or an S-tolvaptan crystal powder (mean particle size: 35.8 μm) was weighed out in an amount of 0.1 g, and added to the solution for the dissolution test (500 mL) shown in Table 2 above. None of the tolvaptans in an amount weighed above were dissolved in the solution for dissolution test, and were fully suspended. […]
# [2] = in vitro metabolic stability test, human liver homogenate (S9 fraction); type: in vitro ADME; conditions: 100 nM, sampling 5, 10, 30, 60 minutes, LC-MS/MS, FIG. 1 (1)
# Procedure: (§1) Using human and rat liver homogenates (S9 fractions), the in vitro metabolic stability test of tolvaptan (racemic compound), R-tolvaptan, and S-tolvaptan was performed. The concentration of each evaluated compound was set to 100 nM, and the concentration sampling of each compound in a reaction mixture was conducted over time, i.e., 5, 10, 30, and 60 minutes after addition, and measured by LC-MS/MS (FIGS. 1 (1) and (2)).
# [3] = in vitro metabolic stability test, rat liver homogenate (S9 fraction); type: in vitro ADME; conditions: 100 nM, sampling 5, 10, 30, 60 minutes, LC-MS/MS, FIG. 1 (2)
# Procedure: as §1
SMILES,dissolution amount [1],in vitro metabolic stability (disappearance over time) [2],in vitro metabolic stability (disappearance over time) [3]
"Cc1ccccc1C(=O)Nc1ccc(C(=O)N2CCC[C@H](O)c3cc(Cl)ccc32)c(C)c1 [S-tolvaptan, S-(−)-7-chloro-5-hydroxy-1-[2-methyl-4-(2-methylbenzoylamino)benzoyl]-2,3,4,5-tetrahydro-1H-benzazepine]","slightly higher than that of the tolvaptan (racemic compound) crystal of Comparative Example 7, and remained fairly constant","disappeared slowly compared to tolvaptan (racemic compound) or R-tolvaptan, and had high metabolic stability",–
"Cc1ccccc1C(=O)Nc1ccc(C(=O)N2CCC[C@@H](O)c3cc(Cl)ccc32)c(C)c1 [R-tolvaptan, R-(+)-7-chloro-5-hydroxy-1-[2-methyl-4-(2-methylbenzoylamino)benzoyl]-2,3,4,5-tetrahydro-1H-benzazepine]","slightly higher than that of the tolvaptan (racemic compound) crystal of Comparative Example 7, and remained fairly constant",–,"disappeared slowly compared to tolvaptan (racemic compound) or S-tolvaptan, and had high metabolic stability"
